Reference: ChEMBL document CHEMBL5030558, “Optimization and Evaluation of Novel Antifungal Agents for the Treatment of Fungal Infection” (J Med Chem, 2021)
Activity calls are given as the source filed them. No cut-off for these calls is given here.

Legend:
Trichophyton rubrum [1] = experiment: Fungicidal activity against Trichophyton rubrum KCCM60450 at 2 times MIC after 8 hrs by time-kill kinetics assay; type: functional, organism-based
Cryptococcus neoformans [2] = experiment: Synergistic antifungal activity against Cryptococcus neoformans XW252 in presence of FK506 by checkboard assay; type: functional, organism-based
[Candida] auris = Synergistic antifungal activity against Candida auris B8841 assessed as FICI in presence of AmB after 48 hrs by checker board assay; type: functional, organism-based; conditions: Candidozyma auris
Trichophyton rubrum [3] = experiment: Fungicidal activity against Trichophyton rubrum KCCM60450 at 4 ug/ml by time-kill kinetics assay; type: functional, organism-based; conditions: dose 4.0 µg/ml
[4] = Stability in mouse liver microsomes assessed as parent compound remaining after 30 mins; type: ADME, Microsome; conditions: liver microsomes, read-out: Stability
CYP1A2 = biological target: T1, CYP1A2 (Homo sapiens, UniProt P05177); experiment: Inhibition of CYP1A2 (unknown origin) relative to control; type: ADME
T1 sequence (P05177 whole entry): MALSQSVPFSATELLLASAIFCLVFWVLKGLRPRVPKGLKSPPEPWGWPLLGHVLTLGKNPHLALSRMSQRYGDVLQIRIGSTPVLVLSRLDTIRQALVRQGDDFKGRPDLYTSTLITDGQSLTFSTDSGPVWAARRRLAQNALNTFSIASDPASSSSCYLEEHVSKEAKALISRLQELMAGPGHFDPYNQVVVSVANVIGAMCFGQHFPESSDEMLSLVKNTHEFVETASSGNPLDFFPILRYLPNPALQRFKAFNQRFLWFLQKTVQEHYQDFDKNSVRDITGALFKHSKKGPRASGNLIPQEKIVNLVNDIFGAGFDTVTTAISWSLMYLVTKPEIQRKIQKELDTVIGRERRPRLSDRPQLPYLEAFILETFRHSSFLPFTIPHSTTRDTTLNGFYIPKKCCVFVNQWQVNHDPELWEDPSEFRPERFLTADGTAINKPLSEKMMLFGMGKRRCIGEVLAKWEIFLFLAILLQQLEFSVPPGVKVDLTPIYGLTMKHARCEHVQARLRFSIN

[5] = Effect on cell wall integrity in Cryptococcus neoformans H99 assessed as activation of Mpk1 by measuring increase in Mpk1 phosphorylation ratio at 8 ug/ml after 90 mins by immunoblot analysis (reference value: 1); type: functional; conditions: dose 8 µg/ml, 1.5 h
[6] = Stability in minipig hepatocytes assessed as parent compound remaining incubated for 60 mins; type: ADME, cell-based, Sus scrofa domesticus, Liver; conditions: pig, read-out: Stability
Cryptococcus neoformans [7] = experiment: Induction of morphological changes in Cryptococcus neoformans H99 assessed as reduction in cell wall thickness at 4 to 8 ug/ml incubated for 24 hrs by TEM analysis; type: functional, organism-based; conditions: dose 4-8 µg/ml
[8] = biological target: Voltage-gated inwardly rectifying potassium channel KCNH2 (Homo sapiens, UniProt Q12809); experiment: Inhibition of human ERG by patch clamp assay
Voltage-gated inwardly rectifying potassium channel KCNH2, sequence (Q12809 whole entry): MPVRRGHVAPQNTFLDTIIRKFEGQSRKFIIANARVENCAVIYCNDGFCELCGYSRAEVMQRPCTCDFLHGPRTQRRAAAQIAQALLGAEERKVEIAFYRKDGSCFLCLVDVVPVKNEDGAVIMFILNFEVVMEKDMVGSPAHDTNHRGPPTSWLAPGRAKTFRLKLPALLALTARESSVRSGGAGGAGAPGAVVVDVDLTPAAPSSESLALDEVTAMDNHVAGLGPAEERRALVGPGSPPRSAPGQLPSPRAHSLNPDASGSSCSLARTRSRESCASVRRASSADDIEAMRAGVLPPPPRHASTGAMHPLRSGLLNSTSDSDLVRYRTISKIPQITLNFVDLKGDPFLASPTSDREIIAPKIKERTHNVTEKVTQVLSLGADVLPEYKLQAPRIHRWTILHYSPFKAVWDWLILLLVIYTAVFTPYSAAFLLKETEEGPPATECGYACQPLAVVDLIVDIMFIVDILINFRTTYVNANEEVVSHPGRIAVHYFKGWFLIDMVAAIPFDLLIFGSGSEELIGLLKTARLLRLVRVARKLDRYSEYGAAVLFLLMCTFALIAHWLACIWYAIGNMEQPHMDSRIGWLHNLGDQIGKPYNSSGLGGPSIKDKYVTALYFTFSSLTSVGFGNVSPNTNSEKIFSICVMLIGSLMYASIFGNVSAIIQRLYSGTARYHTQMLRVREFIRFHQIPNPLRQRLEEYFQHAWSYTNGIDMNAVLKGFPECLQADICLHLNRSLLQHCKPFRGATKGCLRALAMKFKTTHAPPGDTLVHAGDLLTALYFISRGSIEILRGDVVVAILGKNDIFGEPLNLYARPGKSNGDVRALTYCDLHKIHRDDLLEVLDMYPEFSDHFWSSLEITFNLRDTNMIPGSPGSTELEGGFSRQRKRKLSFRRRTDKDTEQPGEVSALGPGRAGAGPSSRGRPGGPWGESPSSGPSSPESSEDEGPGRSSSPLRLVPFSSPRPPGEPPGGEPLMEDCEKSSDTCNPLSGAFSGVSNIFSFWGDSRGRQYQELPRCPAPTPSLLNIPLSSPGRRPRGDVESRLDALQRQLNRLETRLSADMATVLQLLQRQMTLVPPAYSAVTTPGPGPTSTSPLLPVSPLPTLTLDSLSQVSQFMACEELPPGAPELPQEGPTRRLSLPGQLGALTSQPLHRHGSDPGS

HaCaT = experiment: Cytotoxicity against human HaCaT cells upto 12.5 uM incubated for 24 hrs; type: cell-based
[9] = Cmax in dog at 1 mg/kg, iv; type: ADME, organism-based, Canis lupus familiaris; set-up: route intravenous, dose 1 mg/kg; conditions: in vivo
[10] = Toxicity in Sprague-Dawley rat assessed as death at 500 to 1000 mg/kg, po measured after 14 days; type: organism-based; conditions: in vivo, 336 h, dose 500-1000 mg/kg, time 14 day
Nakaseomyces glabratus [11] = experiment: Synergistic antifungal activity against Candida glabrata BG2 assessed as FICI in presence of ICZ after 48 hrs by checker board assay; type: functional, organism-based
Nakaseomyces glabratus [12] = experiment: Additive antifungal activity against Candida glabrata BG2 assessed as assessed as FICI in presence of CSP after 48 hrs by checker board assay; type: functional, organism-based
[13] = Stability in human plasma assessed as parent compound remaining after 30 to 120 mins; type: ADME, cell-free; conditions: time 30-120 min
[14] = Stability in human liver microsomes assessed as parent compound remaining after 30 mins; type: ADME, Microsome; conditions: read-out: Stability
[15] = Stability in rat plasma assessed as parent compound remaining after 30 to 120 mins; type: ADME, cell-free; conditions: time 30-120 min
[16] = Cmax in Sprague-Dawley rat at 10 mg/kg, po; type: ADME, organism-based; set-up: route oral, dose 10 mg/kg; conditions: in vivo
Cryptococcus neoformans [17] = experiment: Synergistic antifungal activity against Cryptococcus neoformans H99 assessed as FICI in presence of AmB after 48 hrs by checker board assay; type: functional, organism-based
Cytochrome P450 2C9 = Cytochrome P450 2C9 (Homo sapiens, UniProt P11712); experiment: Inhibition of CYP2C9 (unknown origin) relative to control; type: ADME
Cytochrome P450 2C9, sequence (P11712 whole entry): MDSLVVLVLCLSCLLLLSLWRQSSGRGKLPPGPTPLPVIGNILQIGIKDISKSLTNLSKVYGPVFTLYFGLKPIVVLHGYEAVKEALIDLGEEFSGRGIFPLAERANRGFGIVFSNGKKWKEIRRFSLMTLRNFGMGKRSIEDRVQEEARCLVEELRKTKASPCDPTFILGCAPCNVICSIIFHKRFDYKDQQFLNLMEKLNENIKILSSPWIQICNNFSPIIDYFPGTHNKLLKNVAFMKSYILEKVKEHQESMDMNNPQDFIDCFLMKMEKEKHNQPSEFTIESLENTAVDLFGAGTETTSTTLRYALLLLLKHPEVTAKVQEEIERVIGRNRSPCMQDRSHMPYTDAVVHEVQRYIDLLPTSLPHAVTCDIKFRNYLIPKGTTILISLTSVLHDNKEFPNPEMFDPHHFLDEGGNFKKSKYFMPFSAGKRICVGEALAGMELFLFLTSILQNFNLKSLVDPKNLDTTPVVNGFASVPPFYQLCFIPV

Candida albicans [18] = experiment: In vivo antifungal activity against Candida albicans 90028 infected in BALB/c mouse assessed as appearance of soft epidermal stratum corneum measured upto 48 hrs post infection by histopathological analysis; type: functional, organism-based; conditions: time hrs <=48
Candida albicans [19] = experiment: In vivo antifungal activity against Candida albicans 90028 infected in BALB/c mouse assessed as reduction in size of inflammation measured upto 48 hrs post infection; type: functional, organism-based; conditions: time hrs <=48
[20] = Stability in dog hepatocytes assessed as parent compound remaining incubated for 60 mins; type: ADME, cell-based, Canis lupus familiaris, Hepatocyte; conditions: read-out: Stability
[21] = Cmax in dog at 10 mg/kg, po; type: ADME, organism-based, Canis lupus familiaris; set-up: route oral, dose 10 mg/kg; conditions: in vivo
Cryptococcus neoformans [22] = experiment: Fungicidal activity against Cryptococcus neoformans H99 at 8 times of MIC after 4 hrs by time-kill kinetics assay; type: functional, organism-based
[23] = Toxicity in Sprague-Dawley rat assessed as body weight gain at 500 to 1000 mg/kg, po measured after 3 days; type: organism-based; conditions: in vivo, 72 h, dose 500-1000 mg/kg, time 3 day
[24] = Effect on cell wall integrity in Cryptococcus neoformans H99 assessed as increase in HXL1 activation ratio at 4 ug/ml after 2 hrs by immunoblot analysis (reference value: 1); type: functional; conditions: dose 4 µg/ml
Cytochrome P450 3A4 = Cytochrome P450 3A4 (Homo sapiens, UniProt P08684); experiment: Inhibition of CYP3A4 (unknown origin) relative to control; type: ADME
Cytochrome P450 3A4, sequence (P08684 whole entry): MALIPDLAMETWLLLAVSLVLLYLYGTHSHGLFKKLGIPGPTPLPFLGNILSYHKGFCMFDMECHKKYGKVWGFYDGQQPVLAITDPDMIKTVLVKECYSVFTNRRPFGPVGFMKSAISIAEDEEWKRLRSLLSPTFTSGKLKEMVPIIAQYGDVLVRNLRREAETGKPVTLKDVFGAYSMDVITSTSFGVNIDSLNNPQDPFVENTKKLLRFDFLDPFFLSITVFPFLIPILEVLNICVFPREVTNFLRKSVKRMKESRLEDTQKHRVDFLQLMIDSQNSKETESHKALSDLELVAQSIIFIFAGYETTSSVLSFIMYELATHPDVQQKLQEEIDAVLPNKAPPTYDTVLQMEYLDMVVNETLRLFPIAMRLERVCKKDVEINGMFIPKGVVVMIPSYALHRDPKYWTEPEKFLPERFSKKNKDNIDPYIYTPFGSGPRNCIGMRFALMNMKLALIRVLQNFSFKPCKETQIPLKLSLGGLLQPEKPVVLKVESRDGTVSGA

Cryptococcus neoformans [25] = experiment: Fungicidal activity against Cryptococcus neoformans H99 at 8 times of MIC after 2 hrs by time-kill kinetics assay; type: functional, organism-based
[26] = AUC(0 to t) in dog at 10 mg/kg, po; type: ADME, organism-based, Canis lupus familiaris; set-up: dose 10 mg/kg; conditions: in vivo
Trichophyton rubrum [27] = experiment: Ex vivo antifungal activity against Trichophyton rubrum KCCM60450 infected in human nail assessed as reduction in ATP level at 0.5 % w/w after 24 hrs; type: functional; set-up: scale not given: the % may be the effect or the level left
Candida albicans [28] = experiment: Induction of drug resistant in Candida albicans ATCC SC5314 assessed as increase in compound IC50 at 8 to 12 times MIC; type: functional, organism-based
[29] = AUC(0 to t) in Sprague-Dawley rat at 2 mg/kg, iv; type: ADME, organism-based; set-up: dose 2 mg/kg; conditions: in vivo
Cryptococcus neoformans [30] = experiment: Antifungal activity against Cryptococcus neoformans H99 assessed as reduction in fungal growth incubated for 72 hrs by CLSI based broth microdilution method; type: functional
[31] = Oral bioavailability in Sprague-Dawley rat at 10 mg/kg; type: ADME, organism-based; conditions: in vivo
Candida albicans [32] = experiment: Synergistic antifungal activity against Candida albicans ATCC SC5314 assessed as FICI in presence of ICZ after 48 hrs by checker board assay; type: functional, organism-based
[33] = Stability in human hepatocytes assessed as parent compound remaining incubated for 60 mins; type: ADME, cell-based, Hepatocyte; conditions: read-out: Stability
Trichophyton rubrum [34] = experiment: Fungicidal activity against Trichophyton rubrum KCCM60450 at 4 times after 2 hrs by time-kill kinetics assay; type: functional, organism-based

For CCCC(N)C(=O)NCCc1ccc(-c2ccc(Cl)c(Cl)c2)cc1.Cl (racemic), the Activity (Trichophyton rubrum [1]) was “Active”, the Activity (Cryptococcus neoformans [2]) was “Active” and the Activity ([Candida] auris) was “Active”. The Activity (Trichophyton rubrum [3]) was “Active”, the remaining at 0.5 h [4] was 78.2% and the inhibition at 10 µM (CYP1A2) was 81.1%. For the same compound, the Ratio [5] was 3.32, the remaining at 1 h [6] was 49.6% and the Activity (Cryptococcus neoformans [7]) was “Active”. For the same compound, the IC50 [8] was 39.5 µM, the Activity (HaCaT) was “Non-Toxic” and the Cmax [9] was 296 ng/mL. For the same compound, the Activity [10] was “Non-Toxic”, the Activity (Nakaseomyces glabratus [11]) was “inactive” and the Activity (Nakaseomyces glabratus [12]) was “Active”. It also gave a Stability [13] of 97%, a remaining at 0.5 h [14] of 90% and a Stability [15] of 96.2%. The Cmax [16] was 97.3 ng/mL, the Activity (Cryptococcus neoformans [17]) was “Active” and the “inhibition (INH)” value (Cytochrome P450 2C9) was 77.3%. The Activity (Candida albicans [18]) was “Active”, the Activity (Candida albicans [19]) was “Active” and the remaining at 1 h [20] was 61.1%. For the same compound, the Cmax [21] was 4390 ng/mL, the Activity (Cryptococcus neoformans [22]) was “Active” and the Activity [23] was “Non-Toxic”. The Ratio [24] was 1.12, the “inhibition (INH)” value (Cytochrome P450 3A4) was 43.7% and the Activity (Cryptococcus neoformans [25]) was “Active”. The AUC(0-t) [26] was 30500 ng·h/mL, the Activity (Trichophyton rubrum [27]) was 32.72% and the Activity (Candida albicans [28]) was “inactive”. It also gave an AUC(0-t) [29] of 265 ng·h/mL, an MIC (Cryptococcus neoformans [30]) of 1 µg/mL and a bioavailability [31] of 39.8%. For the same compound, the Activity (Candida albicans [32]) was “inactive”, the remaining at 1 h [33] was 79.1% and the Activity (Trichophyton rubrum [34]) was “Active”.
